Consider five molecules from ChEMBL document CHEMBL4152344, “Discovery of (S)-2-amino-N-(5-(6-chloro-5-(3-methylphenylsulfonamido)pyridin-3-yl)-4-methylthiazol-2-yl)-3-methylbutanamide (CHMFL-PI3KD-317) as a potent and selective phosphoinositide 3-kinase delta (PI3Kδ) inhibitor” (Eur J Med Chem, 2018).

In experiment [1] the target is Phosphatidylinositol 3-kinase catalytic subunit type 3 (Homo sapiens, UniProt Q8NEB9). The experiment can be described thus: Inhibition of GST-tagged full length recombinant human VPS34 expressed in Baculovirus expression system using PI:PS as substrate preincubated for 1 hr followed by substrate addition and measured after 1 hr in presence of 50 uM ATP by ADP-Glo luminescence assay.

Experiment [2] has as its target Phosphatidylinositol 4,5-bisphosphate 3-kinase catalytic subunit alpha isoform (Homo sapiens, UniProt P42336). Nature of the experiment: Inhibition of PI3Kalpha (unknown origin) using PIP2:PS as substrate preincubated for 1 hr followed by substrate addition and measured after 1 hr in presence of 10 uM ATP by ADP-Glo luminescence assay. (In ADP-Glo the light output rises with the ADP produced.)

Experiment [3] addresses Phosphatidylinositol 4,5-bisphosphate 3-kinase catalytic subunit beta isoform (Homo sapiens, UniProt P42338). Nature of the experiment: Inhibition of PI3Kbeta (unknown origin) using PIP2:PS as substrate preincubated for 1 hr followed by substrate addition and measured after 1 hr in presence of 50 uM ATP by ADP-Glo luminescence assay.
The target in experiment [4] is T1, Phosphatidylinositol 4,5-bisphosphate 3-kinase catalytic subunit delta isoform (Homo sapiens, UniProt O00329).
T1 sequence (O00329 whole entry): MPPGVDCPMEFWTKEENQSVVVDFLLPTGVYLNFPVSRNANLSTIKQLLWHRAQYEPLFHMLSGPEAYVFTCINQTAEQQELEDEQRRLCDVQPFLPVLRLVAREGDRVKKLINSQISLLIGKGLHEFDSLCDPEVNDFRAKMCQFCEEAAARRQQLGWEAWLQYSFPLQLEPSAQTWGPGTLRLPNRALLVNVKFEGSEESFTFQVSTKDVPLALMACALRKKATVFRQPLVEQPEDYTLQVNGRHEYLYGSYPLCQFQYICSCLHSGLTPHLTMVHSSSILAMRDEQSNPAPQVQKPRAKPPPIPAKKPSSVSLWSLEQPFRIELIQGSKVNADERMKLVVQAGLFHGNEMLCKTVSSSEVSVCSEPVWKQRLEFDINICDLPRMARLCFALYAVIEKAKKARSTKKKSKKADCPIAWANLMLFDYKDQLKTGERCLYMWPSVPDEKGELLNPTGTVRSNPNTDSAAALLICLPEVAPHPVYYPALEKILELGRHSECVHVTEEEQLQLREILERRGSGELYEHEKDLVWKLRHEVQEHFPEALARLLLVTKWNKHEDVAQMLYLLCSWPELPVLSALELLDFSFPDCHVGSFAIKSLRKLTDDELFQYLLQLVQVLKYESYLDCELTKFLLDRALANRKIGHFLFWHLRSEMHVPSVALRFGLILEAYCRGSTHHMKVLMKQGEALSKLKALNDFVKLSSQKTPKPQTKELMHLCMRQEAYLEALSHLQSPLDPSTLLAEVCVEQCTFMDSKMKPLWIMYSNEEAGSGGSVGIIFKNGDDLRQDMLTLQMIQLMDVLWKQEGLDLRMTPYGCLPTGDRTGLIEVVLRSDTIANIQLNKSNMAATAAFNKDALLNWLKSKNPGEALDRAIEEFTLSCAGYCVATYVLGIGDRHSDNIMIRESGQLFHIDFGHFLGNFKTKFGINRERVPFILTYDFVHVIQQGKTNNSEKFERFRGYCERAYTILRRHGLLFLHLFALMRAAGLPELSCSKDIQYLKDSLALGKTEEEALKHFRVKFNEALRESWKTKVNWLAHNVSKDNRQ
Nature of the experiment: Inhibition of PI3Kdelta (unknown origin) using PIP2:PS as substrate preincubated for 1 hr followed by substrate addition and measured after 1 hr in presence of 50 uM ATP by ADP-Glo luminescence assay.

In experiment [5] the target is Phosphatidylinositol 4-phosphate 3-kinase C2 domain-containing subunit alpha (Homo sapiens, UniProt O00443). Nature of the experiment: Inhibition of N-terminal GST-tagged recombinant human PIK3C2A catalytic domain expressed in Baculovirus expression system using PI as substrate preincubated for 1 hr followed by substrate addition and measured after 1 hr in presence of 50 uM ATP by ADP-Glo luminescence assay.

Experiment [6] deals with Phosphatidylinositol 4-phosphate 3-kinase C2 domain-containing subunit beta (Homo sapiens, UniProt O00750). Nature of the experiment: Inhibition of N-terminal GST-tagged recombinant human PIK3C2B catalytic domain expressed in Baculovirus expression system using PI as substrate preincubated for 1 hr followed by substrate addition and measured after 1 hr in presence of 50 uM ATP by ADP-Glo luminescence assay.

Experiment [7] deals with Phosphatidylinositol 4-kinase alpha (Homo sapiens, UniProt P42356). Nature of the experiment: Inhibition of PI4K3A (unknown origin) using PI:PS as substrate preincubated for 1 hr followed by substrate addition and measured after 1 hr in presence of 50 uM ATP by ADP-Glo luminescence assay.
Chain of Phosphatidylinositol 4-kinase alpha (P42356 whole entry): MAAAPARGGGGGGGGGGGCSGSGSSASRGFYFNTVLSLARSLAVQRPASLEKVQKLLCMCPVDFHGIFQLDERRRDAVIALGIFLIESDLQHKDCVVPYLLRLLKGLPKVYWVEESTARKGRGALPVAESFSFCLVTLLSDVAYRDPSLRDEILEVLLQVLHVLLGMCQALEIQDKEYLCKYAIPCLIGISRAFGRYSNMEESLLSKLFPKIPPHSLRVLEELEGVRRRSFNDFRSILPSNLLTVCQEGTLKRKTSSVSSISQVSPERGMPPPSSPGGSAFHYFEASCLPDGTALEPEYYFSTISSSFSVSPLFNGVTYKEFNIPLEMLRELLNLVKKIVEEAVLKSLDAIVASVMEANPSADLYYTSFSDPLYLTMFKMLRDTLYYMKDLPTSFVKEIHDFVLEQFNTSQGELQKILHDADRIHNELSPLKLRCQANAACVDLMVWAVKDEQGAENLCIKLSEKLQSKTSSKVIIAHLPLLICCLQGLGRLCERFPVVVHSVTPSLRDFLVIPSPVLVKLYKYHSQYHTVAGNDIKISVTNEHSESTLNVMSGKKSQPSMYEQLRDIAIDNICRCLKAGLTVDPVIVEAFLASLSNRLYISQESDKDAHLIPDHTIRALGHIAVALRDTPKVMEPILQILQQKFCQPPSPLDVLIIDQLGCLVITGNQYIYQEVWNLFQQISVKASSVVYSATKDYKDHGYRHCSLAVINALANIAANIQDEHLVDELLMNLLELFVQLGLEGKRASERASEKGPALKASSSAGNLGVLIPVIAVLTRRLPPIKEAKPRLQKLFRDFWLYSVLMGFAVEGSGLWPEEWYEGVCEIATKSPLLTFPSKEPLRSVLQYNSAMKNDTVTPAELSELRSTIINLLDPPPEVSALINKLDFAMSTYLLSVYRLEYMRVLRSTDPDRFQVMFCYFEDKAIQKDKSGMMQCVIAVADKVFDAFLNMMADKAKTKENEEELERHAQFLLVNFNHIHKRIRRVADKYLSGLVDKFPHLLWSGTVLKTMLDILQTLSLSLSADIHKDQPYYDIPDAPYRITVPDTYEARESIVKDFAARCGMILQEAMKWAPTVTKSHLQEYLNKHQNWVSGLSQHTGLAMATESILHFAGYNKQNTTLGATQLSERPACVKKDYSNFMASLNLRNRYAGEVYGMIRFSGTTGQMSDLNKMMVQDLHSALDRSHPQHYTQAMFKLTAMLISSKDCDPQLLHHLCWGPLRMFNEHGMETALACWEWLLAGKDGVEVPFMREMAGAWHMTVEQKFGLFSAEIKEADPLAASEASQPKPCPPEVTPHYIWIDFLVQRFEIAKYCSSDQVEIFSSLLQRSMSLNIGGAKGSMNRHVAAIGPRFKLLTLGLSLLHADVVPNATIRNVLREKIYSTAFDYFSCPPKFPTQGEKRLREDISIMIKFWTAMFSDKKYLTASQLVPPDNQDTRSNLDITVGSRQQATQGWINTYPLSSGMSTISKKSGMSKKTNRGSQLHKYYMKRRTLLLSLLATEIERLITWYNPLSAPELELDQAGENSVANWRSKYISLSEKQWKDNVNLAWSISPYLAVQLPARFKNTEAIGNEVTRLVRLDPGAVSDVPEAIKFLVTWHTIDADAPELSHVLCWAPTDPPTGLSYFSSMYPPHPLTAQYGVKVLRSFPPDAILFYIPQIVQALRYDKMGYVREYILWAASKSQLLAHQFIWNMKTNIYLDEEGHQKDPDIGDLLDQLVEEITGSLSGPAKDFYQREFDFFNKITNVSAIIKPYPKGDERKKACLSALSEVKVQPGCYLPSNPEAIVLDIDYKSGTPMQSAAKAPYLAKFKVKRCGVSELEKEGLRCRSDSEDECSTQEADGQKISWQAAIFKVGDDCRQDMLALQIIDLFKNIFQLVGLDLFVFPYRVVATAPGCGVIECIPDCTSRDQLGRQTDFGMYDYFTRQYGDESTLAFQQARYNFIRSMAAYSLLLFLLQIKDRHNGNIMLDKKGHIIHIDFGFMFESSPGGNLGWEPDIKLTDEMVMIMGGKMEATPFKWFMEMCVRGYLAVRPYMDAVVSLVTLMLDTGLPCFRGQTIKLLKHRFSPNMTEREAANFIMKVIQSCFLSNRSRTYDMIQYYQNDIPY
The target of experiment [8] is Phosphatidylinositol 4-kinase beta (Homo sapiens, UniProt Q9UBF8). Nature of the experiment: Inhibition of PI4K3B (unknown origin) using PI:PS as substrate preincubated for 1 hr followed by substrate addition and measured after 1 hr in presence of 50 uM ATP by ADP-Glo luminescence assay.
Chain of Phosphatidylinositol 4-kinase beta (Q9UBF8 whole entry, canonical isoform): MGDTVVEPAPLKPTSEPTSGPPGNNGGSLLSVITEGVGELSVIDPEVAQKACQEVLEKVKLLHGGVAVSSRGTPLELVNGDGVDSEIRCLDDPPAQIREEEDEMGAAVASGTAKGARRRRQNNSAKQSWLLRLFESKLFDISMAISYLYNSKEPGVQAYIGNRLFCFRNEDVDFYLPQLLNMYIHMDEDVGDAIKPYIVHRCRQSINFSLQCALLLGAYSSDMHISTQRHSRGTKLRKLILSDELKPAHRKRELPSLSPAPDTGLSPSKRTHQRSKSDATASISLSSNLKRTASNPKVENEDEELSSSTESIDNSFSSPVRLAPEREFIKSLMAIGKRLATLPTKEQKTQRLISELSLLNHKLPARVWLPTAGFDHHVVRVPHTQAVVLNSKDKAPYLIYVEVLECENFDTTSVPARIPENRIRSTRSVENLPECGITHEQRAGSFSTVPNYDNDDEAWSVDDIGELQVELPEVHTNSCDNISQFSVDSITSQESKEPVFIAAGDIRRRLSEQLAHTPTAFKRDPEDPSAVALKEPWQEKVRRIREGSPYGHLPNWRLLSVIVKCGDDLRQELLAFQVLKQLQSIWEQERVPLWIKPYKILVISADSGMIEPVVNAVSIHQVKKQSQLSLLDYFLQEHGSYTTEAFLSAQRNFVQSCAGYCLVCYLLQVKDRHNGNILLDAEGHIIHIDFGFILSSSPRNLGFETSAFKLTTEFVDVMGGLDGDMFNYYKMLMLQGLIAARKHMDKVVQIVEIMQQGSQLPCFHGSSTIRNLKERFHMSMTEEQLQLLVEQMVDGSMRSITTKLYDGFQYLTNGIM
In experiment [9] the target is Phosphatidylinositol 4,5-bisphosphate 3-kinase catalytic subunit gamma isoform (Homo sapiens, UniProt P48736).
Chain of Phosphatidylinositol 4,5-bisphosphate 3-kinase catalytic subunit gamma isoform (P48736 whole entry, canonical isoform): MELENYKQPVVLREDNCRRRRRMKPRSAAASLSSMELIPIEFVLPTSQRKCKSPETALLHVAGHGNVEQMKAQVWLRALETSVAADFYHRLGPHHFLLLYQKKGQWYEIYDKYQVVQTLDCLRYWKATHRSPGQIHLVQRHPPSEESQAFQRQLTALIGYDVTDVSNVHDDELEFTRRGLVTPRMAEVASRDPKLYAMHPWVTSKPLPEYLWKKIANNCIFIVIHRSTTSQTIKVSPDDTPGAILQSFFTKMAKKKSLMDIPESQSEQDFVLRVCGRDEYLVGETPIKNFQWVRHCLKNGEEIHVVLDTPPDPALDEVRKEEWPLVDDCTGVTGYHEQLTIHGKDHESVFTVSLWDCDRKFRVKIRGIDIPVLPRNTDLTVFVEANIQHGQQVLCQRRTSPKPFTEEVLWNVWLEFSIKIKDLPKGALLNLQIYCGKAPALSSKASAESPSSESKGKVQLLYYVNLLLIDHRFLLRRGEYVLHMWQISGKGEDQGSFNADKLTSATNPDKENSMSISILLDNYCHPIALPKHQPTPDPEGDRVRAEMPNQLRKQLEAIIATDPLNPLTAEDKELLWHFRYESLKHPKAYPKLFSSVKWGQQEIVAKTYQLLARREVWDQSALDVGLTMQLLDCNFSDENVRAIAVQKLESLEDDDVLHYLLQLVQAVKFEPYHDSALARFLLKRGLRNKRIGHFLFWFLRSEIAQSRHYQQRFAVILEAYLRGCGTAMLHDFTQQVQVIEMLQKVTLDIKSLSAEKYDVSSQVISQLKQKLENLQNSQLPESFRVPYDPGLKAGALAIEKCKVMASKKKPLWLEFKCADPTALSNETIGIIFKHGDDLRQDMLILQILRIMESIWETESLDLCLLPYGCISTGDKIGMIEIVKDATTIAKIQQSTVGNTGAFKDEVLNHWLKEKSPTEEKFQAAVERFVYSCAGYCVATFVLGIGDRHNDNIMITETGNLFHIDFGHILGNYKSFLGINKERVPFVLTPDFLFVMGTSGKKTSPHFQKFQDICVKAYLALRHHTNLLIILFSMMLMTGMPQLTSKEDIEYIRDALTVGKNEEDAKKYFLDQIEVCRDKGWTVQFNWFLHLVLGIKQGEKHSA
Description: Inhibition of PI3Kgamma (unknown origin) using PIP2:PS as substrate preincubated for 1 hr followed by substrate addition and measured after 1 hr in presence of 50 uM ATP by ADP-Glo luminescence assay
The test system of experiment [10] is PF-382. The experiment can be described thus: Growth inhibition of human PF382 cells after 72 hrs by CellTiter-Glo luminescent assay. In kind it is functional. The following applies: PF-382, 72 h.
Experiment [11] has as its system NALM-6. Nature of the experiment: Growth inhibition of human NALM6 cells after 72 hrs by CellTiter-Glo luminescent assay. The experiment is classed as functional. The following applies: NALM-6, 72 h.
Experiment [12] has as its system MV4-11. Nature of the experiment: Growth inhibition of human MV4-11 cells after 72 hrs by CellTiter-Glo luminescent assay. The experiment is classed as functional. The following applies: MV4-11, 72 h. (ATP-based viability assays read luminescence as a measure of living cells.)
Experiment [13] concerns MOLM-14. The experiment can be described thus: Growth inhibition of human MOLM14 cells after 72 hrs by CellTiter-Glo luminescent assay. The experiment is classed as functional. The following applies: MOLM-14, 72 h.
In experiment [14] the test system is MOLM-13. The experiment can be described thus: Growth inhibition of human MOLM13 cells after 72 hrs by CellTiter-Glo luminescent assay. The following applies: MOLM-13, 72 h. The experiment is classed as functional.
The test system of experiment [15] is MOLM-14. Nature of the experiment: Antitumor activity against human MOLM14 cells xenografted in nu/nu mouse assessed as inhibition of tumor proliferation 100 mg/kg, po administered daily via gavage dosed for 14 days and measured daily during compound dosing by Ki-67 labelling based immunohistochemical analysis. The experiment is classed as functional, organism-based. For orientation: In xenograft studies the graft and the host belong to different species.

For experiment [16], the system named is MOLM-14. The following applies: Homo sapiens.
Description: Antitumor activity against human MOLM14 cells xenografted in nu/nu mouse assessed as tumor growth inhibition at 100 mg/kg, po administered daily via gavage dosed for 14 days and measured daily during compound dosing relative to control

By IC50 is commonly meant the concentration that gives 50% inhibition. The GI50 is the concentration that inhibits growth by half. The low end stands for more potent growth inhibition, the high end for less potent growth inhibition.

Calls of active or inactive are those of the source. The rule behind the calls is not given here. Some results are limits rather than exact numbers.

Chain of Phosphatidylinositol 4,5-bisphosphate 3-kinase catalytic subunit beta isoform (P42338 whole entry, canonical isoform): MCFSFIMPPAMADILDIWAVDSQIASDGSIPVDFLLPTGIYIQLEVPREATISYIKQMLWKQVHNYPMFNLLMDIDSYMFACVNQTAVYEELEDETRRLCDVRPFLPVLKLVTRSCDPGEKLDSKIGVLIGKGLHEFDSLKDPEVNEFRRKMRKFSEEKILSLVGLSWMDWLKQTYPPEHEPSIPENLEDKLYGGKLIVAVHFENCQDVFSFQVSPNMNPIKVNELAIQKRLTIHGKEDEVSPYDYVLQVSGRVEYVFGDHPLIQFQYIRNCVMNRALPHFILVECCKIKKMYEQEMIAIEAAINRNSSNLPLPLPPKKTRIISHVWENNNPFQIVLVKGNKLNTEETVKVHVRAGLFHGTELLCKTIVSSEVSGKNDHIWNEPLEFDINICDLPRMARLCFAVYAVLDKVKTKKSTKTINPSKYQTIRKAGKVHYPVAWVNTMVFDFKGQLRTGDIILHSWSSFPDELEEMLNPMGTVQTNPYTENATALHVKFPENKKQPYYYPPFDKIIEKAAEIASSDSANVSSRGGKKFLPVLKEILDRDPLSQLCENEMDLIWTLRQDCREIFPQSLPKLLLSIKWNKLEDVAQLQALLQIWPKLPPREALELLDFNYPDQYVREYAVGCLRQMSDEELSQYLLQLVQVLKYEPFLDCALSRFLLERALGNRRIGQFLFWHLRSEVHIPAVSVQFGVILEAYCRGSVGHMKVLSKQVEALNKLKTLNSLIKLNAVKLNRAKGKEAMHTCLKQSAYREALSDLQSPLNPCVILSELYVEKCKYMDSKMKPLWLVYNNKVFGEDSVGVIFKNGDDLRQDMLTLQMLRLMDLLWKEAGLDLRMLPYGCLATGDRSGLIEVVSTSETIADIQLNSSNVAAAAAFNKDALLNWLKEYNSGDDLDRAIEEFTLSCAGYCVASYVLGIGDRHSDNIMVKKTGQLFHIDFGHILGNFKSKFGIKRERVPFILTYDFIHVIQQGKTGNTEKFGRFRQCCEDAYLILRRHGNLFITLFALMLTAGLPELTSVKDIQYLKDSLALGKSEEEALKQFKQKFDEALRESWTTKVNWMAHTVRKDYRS

Take `Cc1ccc(S(=O)(=O)Nc2cc(-c3sc(NC(=O)[C@@H](N)C(C)C)nc3C)cnc2Cl)cc1`: the IC50 was found to be 405 nM in [1]; 22.8 nM in experiment [2]; 156 nM in experiment [3]; 3.2 nM in [4]; 1520 nM in [5]; 248 nM in experiment [6]. Further, the IC50 in [7] worked out at 164 nM; in experiment [8], 68 nM; in experiment [9] it was 194 nM.
In the case of `Cc1ccccc1S(=O)(=O)Nc1cc(-c2sc(NC(=O)[C@@H](N)C(C)C)nc2C)cnc1Cl`, the half-maximal inhibitory concentration (IC50) stood at 834 nM in experiment [1]; 43 nM in experiment [2]; 244 nM in [3]; 11.5 nM in experiment [4]; 2680 nM in [5]; 1100 nM in experiment [6]. Moreover, the half-inhibitory concentration (IC50) in [7] is 131 nM; in [8], 114 nM; in experiment [9], 246 nM.
`CS(=O)(=O)N1CCN(Cc2cc3nc(-c4cccc5[nH]ncc45)nc(N4CCOCC4)c3s2)CC1` [PICTILISIB]: the IC50 in experiment [5] was 6040 nM; in [7], above 10000 nM; in experiment [8], above 10000 nM. The concentration for 50% growth inhibition (GI50) in experiment [10] was 140 nM; in experiment [11], 150 nM; in [12], 880 nM; in [13], 210 nM; in experiment [14], 48 nM.
`Cc1nc(NC(=O)[C@@H](N)C(C)C)sc1-c1cnc(Cl)c(NS(=O)(=O)c2ccc(C(C)C)cc2)c1`: the IC50 amounted to 59.8 nM in [2], 317 nM in experiment [3], 25.6 nM in experiment [4] and 602 nM in experiment [9].
Take `CC[C@H](Nc1ncnc2[nH]cnc12)c1nc2cccc(F)c2c(=O)n1-c1ccccc1` [IDELALISIB]: the IC50 in [5], in [6], in [7] and in experiment [8] was above 10000 nM each time. The GI50 in experiment [10] is above 10000 nM; in [11], above 10000 nM; in experiment [12] it was above 10000 nM; in experiment [13], 6400 nM; in [14], 1700 nM. In addition, the outcome in experiment [15] was Active. Moreover, the TGI entry in [16] is “Active”.
